According to patent US10513513B2, “Salts of quinazoline derivative or crystals thereof, and the process for producing thereof” (Shionogi & Co., Ltd., priority 2015, dated 2019):
Structures can show the parent of a compound that is named as a salt.

Columns and labels:
Assay type in all cases: physicochemical
[1] = Stability test of crystals on heating (NMR before/after); settings: heated at 50° C. for 8 hours
Description: (Results of Stability Test)
The crystals of Compound (IIA) obtained in Example 21 were heated at 50° C. for 8 hours and measured NMR data.

[2] = Observation of hygroscopicity of isolated salt; settings: isolated solid
Description: Ethyl acetate (8 mL) was added to Compound 3 (4.12 g, 17.7 mmol), and the mixture was stirred. When 4 mol/L a solution (16 mL) of hydrochloric acid in ethyl acetate was added, white solids were precipitated. Ethyl acetate (8 mL) was added, and then the mixture was stirred for about 4 hours at room temperature.
Benzenesulfonic acid (78.57 mg) and tetrahydrofuran (0.2 mL) were stirred at 50° C., and a tetrahydrofuran (0.2 mL) solution of Compound 3 (51.54 mg, 0.222 mmol) was added dropwise. After about 20 minutes, cooling the mixture to room temperature caused solids to precipitate. Then, 0.15 mL of tetrahydrofuran was added, and the mixture was stirred at 50° C. for 10 minutes and cooled to 10° C.

[3] = Moisture sorption-desorption isothermal measurement; settings: for Ratio of increased mass in moisture desorption isothermal measurement: ratio at 0% Target % P/P0 after desorption, 25° C.; for Ratio of increased mass (moisture sorption): mass increase at 95% Target % P/P0 relative to mass at 0% Target % P/P0, 25° C.
Description: (Moisture Sorption-Desorption Isothermal Measurement)
Moisture sorption-desorption isothermal measurement is measuring the weight changes of a subject solid under various relative humidity conditions, and is a method for determining moisture sorption-desorption behaviors.
As a basic measurement method, the relative humidity is increased in increments of 5% or 10% based on the dry weight at 0% Target % P/P0 (relative humidity 0%), and after the weights at respective relative humidities are stabilized, the amount of adsorbed water can be obtained from the weight increased from a reference value. Similarly, it is possible to measure the amount of desorbed water by reducing the relative humidity in increments of 5% or 10% from 100% Target % P/P0.
Sorption and desorption isotherms can be obtained by plotting the weight change values at respective relative humidities. From the results, it is possible to investigate the sorption and desorption phenomena of attached moisture at respective humidities. Also, when anhydride crystals and hydrate crystals undergo mutual crystal transition due to humidity, it is possible to calculate the humidity, at which crystal transition occurs, and the amount of water of crystallization.
Since the sorption and desorption of attached water and water of crystallization are affected by the particle size, degree of crystallinity, crystal habit, and the like, the measurement results may slightly vary.
Moisture sorption-desorption isothermal measurement was performed on the crystals obtained in each Example. About 10 mg of a sample was weighed onto a sample pan, and measurement was performed. Measurement conditions are as shown below.
Device: DVS Advantage by Surface Measurement Systems Ltd.
Measurement points: from 0% Target % P/P0 to 95% Target % P/P0 in increments of 5%, then from 95% Target % P/P0 to 0% Target % P/P0 in decrements of 5% Temperature: 25° C. […]

[4] = Light exposure test (photostability); settings: for E isomer (Retention time 38 minutes), Light exposed sample: D65 lamp, total illuminance about 1.2 million lx·hr; for E isomer (Retention time 38 minutes), Light exposed sample / E isomer (Retention time 38 minutes), Dark control: HPLC Method B; for E isomer (Retention time 38 minutes), Increased amount: light exposed sample minus dark control
Description: The photostability test is one of the methods for measuring chemical or physicochemical changes of an active pharmaceutical ingredient or a pharmaceutical preparation caused by light exposure to evaluate properties of a sample with respect to light. In the photostability test, a sample such as an active pharmaceutical ingredient or a pharmaceutical preparation is irradiated with light at a specified output for a certain period of time. Properties of the sample with respect to light can be evaluated by analyzing the impurities and analogous substances, crystal form, color difference, and the like of the sample by scientific techniques (such as high performance liquid chromatography, X-ray crystal diffraction, and colorimetry) when a specified total illuminance is reached. In order to verify that a specified amount of light exposure is attained, the amount of light exposure is managed using a radiometer or a luminometer, and a test is carried out using an actinometric system.
(Photostability Measurement)
A photostability test was performed using a photostability tester (model LTL200A5-15WCD) by Nagano Science. A D65 lamp was used as an irradiation source of light, and light was irradiated to a total illuminance of about 1.2 million 1×·hr under 4000 lx·hr conditions.
The quality evaluations of the respective crystals were carried out using HPLC (Method B).

[5] = Test of solubility in water for injection; settings: stirred at 37° C. for 1 hour, HPLC Method A
Description: (Test of Solubility in Water for Injection)
1. Preparation of Calibration Curve
First, 5 mg of monohydrochloride crystal Form I of Compound (I) was precisely weighed and dissolved in a mixed solution of acetonitrile:water (1:1), and thus a 500 μg/mL solution was obtained. The obtained solution was diluted with a mixed solution of acetonitrile:water (1:1) such that the concentrations of the compound were 5 and 50 μg/mL. Accordingly, a standard calibration curve was prepared according to HPLC measurement conditions (Method A). The same operation was carried out for monohydrochloride crystal Form II, monohydrochloride crystal Form V, monohydrochloride crystal Form VI, mono-p-toluenesulfonate crystal Form I, and free base crystals.
2. Preparation of Sample Solution
First, 1 mg of monohydrochloride crystal Form I of Compound (I) was precisely weighed and transferred to a vial having a volume of 4 mL. Then, 1 mL of water (water for injection) was added, and the mixture was stirred at 37° C. for 1 hour. After being stirred, this suspension was filtered, and the peak area was measured under HPLC measurement conditions (Method A) using a solution obtained by diluting the filtrate two-fold with a mixed solution of acetonitrile:water (1:1) as a sample. The concentration was calculated using the peak area and the calibration curve prepared above. The same operation was carried out for monohydrochloride crystal Form II, monohydrochloride crystal Form V, monohydrochloride crystal Form VI, mono-p-toluenesulfonate crystal Form I, and free base crystals.

[6] = Test of solubility in organic solvent; settings: stirred at 22° C. for 4 hours, supernatant, HPLC Method B; for Concentration (% by weight) in 2-Propanol: suspended in 2-propanol; for Concentration (% by weight) in Acetone: suspended in acetone; for Concentration (% by weight) in Ethyl acetate: suspended in ethyl acetate
Description: (Test of Solubility in Organic Solvent)
The monohydrochloride crystal Form I, monohydrochloride crystal Form V, and free base crystals of Compound (I) were each suspended in 2-propanol, acetone, and ethyl acetate, and stirred at 22° C. for 4 hours, and the concentrations of supernatants were measured (HPLC: Method B).

[7] = listed as Monohydrochloride form crystal VI
[8] = listed as mono-p-toluenesulfonate crystal Form I
[9] = listed as Monohydrochloride form crystal V

Structure (SMILES) | Ratio of increased mass in moisture desorption isothermal measurement [3] | E isomer (Retention time 38 minutes), Light exposed sample [4] [area %] | E isomer (Retention time 38 minutes), Increased amount [4] [area %] | Concentration (% by weight) in 2-Propanol [6] [% by weight] | Concentration (% by weight) in Acetone [6] [% by weight] | Concentration (% by weight) in Ethyl acetate [6] [% by weight] | Ratio of increased mass (moisture sorption) [3] | Solubility in water for injection [5] [µg/mL] | E isomer (Retention time 38 minutes), Dark control [4] [area %] | further results
NOC[C@H]1COCCN1 [Compound (IIA)] | – | – | – | – | – | – | – | – | – | Stability of crystals on heating (change of NMR peaks) [1]: no changes to the peaks were observed
NOC[C@H]1COCCN1 [Compound (II″)] | – | – | – | – | – | – | – | – | – | Hygroscopicity (observation) [2]: highly hygroscopic
CC#C/C(=N\OC[C@H]1COCCN1)c1ccc2ncnc(Nc3ccc(OCc4cccc(F)c4)c(Cl)c3)c2c1 [Free base crystal] | about 0.16% | 2.59 | 2.59 | 0.49 | 8.1 | 3.3 | – | – | – | Solubility in water for injection ([5]; listed as free base crystals): not dissolved in water for injection at all
CC#C/C(=N\OC[C@H]1COCCN1)c1ccc2ncnc(Nc3ccc(OCc4cccc(F)c4)c(Cl)c3)c2c1 [Monohydrochloride crystal Form VI] | about 0.06% | – | – | – | – | – | small | 12.9 | – | E isomer (Retention time 38 minutes), Light exposed sample [4, 7]: 1.80 area %; E isomer (Retention time 38 minutes), Dark control [4, 7]: 1.16 area %; E isomer (Retention time 38 minutes), Increased amount [4, 7]: 0.64 area %; Solubility in water for injection ([5]; listed as monohydrochloride crystal Form VI): high solubilities
CC#C/C(=N\OC[C@H]1COCCN1)c1ccc2ncnc(Nc3ccc(OCc4cccc(F)c4)c(Cl)c3)c2c1 [Mono-p-toluenesulfonate crystal Form I] | about 0.12% | 32.86 | 32.76 | – | – | – | small | 26.6 | 0.10 | E isomer (Retention time 38 minutes), Increased amount [4, 8]: about 33 area %; Solubility in water for injection [5, 8]: high solubilities
CC#C/C(=N\OC[C@H]1COCCN1)c1ccc2ncnc(Nc3ccc(OCc4cccc(F)c4)c(Cl)c3)c2c1 [Monohydrochloride crystal Form I] | about 0.08% | 4.41 | 3.78 | 0.03 | 0.08 | 0.01 | small | 34.5 | 0.63 | Solubility in water for injection ([5]; listed as monohydrochloride crystal Form I): high solubilities
CC#C/C(=N\OC[C@H]1COCCN1)c1ccc2ncnc(Nc3ccc(OCc4cccc(F)c4)c(Cl)c3)c2c1 [Monosulfate crystal] | about 0.13% | – | – | – | – | – | – | – | – | Ratio of increased mass (moisture sorption) ([3]; listed as monosulfate crystals): about 3.3%
CC#C/C(=N\OC[C@H]1COCCN1)c1ccc2ncnc(Nc3ccc(OCc4cccc(F)c4)c(Cl)c3)c2c1 [Monohydrochloride crystal Form II] | about 0.05% | 1.21 | −0.23 | – | – | – | small | 56.0 | 1.44 | Solubility in water for injection ([5]; listed as monohydrochloride crystal Form II): high solubilities
NOC[C@H]1COCCN1 [Compound (II′)] | – | – | – | – | – | – | – | – | – | Hygroscopicity (observation) [2]: absorbed moisture and deliquesced
CC#C/C(=N\OC[C@H]1COCCN1)c1ccc2ncnc(Nc3ccc(OCc4cccc(F)c4)c(Cl)c3)c2c1 [Monohydrochloride crystal Form V] | about 0.05% | – | – | 0.01 | 0.02 | 0.00 | small | 14.0 | – | E isomer (Retention time 38 minutes), Light exposed sample [4, 9]: 1.19 area %; E isomer (Retention time 38 minutes), Dark control [4, 9]: 0.13 area %; E isomer (Retention time 38 minutes), Increased amount [4, 9]: 1.06 area %; Solubility in water for injection ([5]; listed as monohydrochloride crystal Form V): high solubilities
